# From ChEMBL document CHEMBL1154825, “Schweinfurthins I and J from Macaranga schweinfurthii” (2010)
# Legend:
# Format in all cases: functional
# [1] = tested on: LOX IMVI; assay: Growth inhibition of human LOXIMVI cells; details: for CC50: read-out: pLC50 (the source's name) (converted); for TGI: read-out: pTGI (converted)
# [2] = tested on: MDA-MB-435; assay: Growth inhibition of human MDA-MB-435 cells; details: for CC50: read-out: pLC50 (the source's name) (converted); for TGI: read-out: pTGI (converted)
# [3] = tested on: SK-MEL-5; assay: Growth inhibition of human SK-MEL-5 cells; details: for CC50: read-out: pLC50 (the source's name) (converted); for TGI: read-out: pTGI (converted)
# [4] = tested on: IGROV-1; assay: Growth inhibition of human IGROV1 cells; details: for CC50: read-out: pLC50 (the source's name) (converted); for TGI: read-out: pTGI (converted)
# [5] = tested on: OVCAR-8; assay: Growth inhibition of human OVCAR8 cells; details: for TGI: read-out: pTGI (converted)
# [6] = tested on: A498; assay: Growth inhibition of human A498 cells; details: for TGI: read-out: pTGI (converted)
# [7] = tested on: DU-145; assay: Growth inhibition of human DU145 cells; details: for TGI: read-out: pTGI (converted)
# [8] = tested on: T47D; assay: Growth inhibition of human T47D cells; details: for TGI: read-out: pTGI (converted)
# [9] = tested on: CCRF-CEM; assay: Growth inhibition of human CCRF-CEM cells; details: for TGI: read-out: pTGI (converted)
# [10] = tested on: K562; assay: Growth inhibition of human K562 cells; details: for TGI: read-out: pTGI (converted)
# [11] = tested on: MOLT-4; assay: Growth inhibition of human MOLT4 cells; details: for TGI: read-out: pTGI (converted)
# [12] = tested on: SR; assay: Growth inhibition of human SR cells; details: for TGI: read-out: pTGI (converted)
# [13] = tested on: HOP-92; assay: Growth inhibition of human HOP92 cells; details: for CC50: read-out: pLC50 (the source's name) (converted); for TGI: read-out: pTGI (converted)
# [14] = tested on: NCI-H522; assay: Growth inhibition of human NCI-H522 cells; details: for TGI: read-out: pTGI (converted)
# [15] = tested on: HCT-15; assay: Growth inhibition of human HCT15 cells; details: for TGI: read-out: pTGI (converted)
# [16] = tested on: SF-539; assay: Growth inhibition of human SF539 cells; details: for TGI: read-out: pTGI (converted)
# [17] = tested on: SNB-75; assay: Growth inhibition of human SNB75 cells; details: for TGI: read-out: pTGI (converted)
smiles,measurement,setting,value
CC(C)=CCC/C(C)=C/Cc1cc(/C=C/c2cc(O)cc(O)c2)ccc1O [SCHWEINFURTHIN I],GI50,[1],7.24 µM
same,CC50,[1],50.1 µM
same,TGI,[1],20.9 µM
same,GI50,[2],7.24 µM
same,CC50,[2],53.7 µM
same,TGI,[2],21.9 µM
same,GI50,[3],4.68 µM
same,CC50,[3],43.7 µM
same,TGI,[3],17.4 µM
same,GI50,[4],11.7 µM
same,CC50,[4],55 µM
same,TGI,[4],25.1 µM
same,GI50,[5],13.8 µM
same,LC50,[5],70.8 µM
same,TGI,[5],30.9 µM
same,GI50,[6],5.01 µM
same,LC50,[6],47.9 µM
same,TGI,[6],20.4 µM
same,GI50,[7],12.9 µM
same,LC50,[7],51.3 µM
same,TGI,[7],25.7 µM
same,GI50,[8],10.2 µM
same,LC50,[8],81.3 µM
same,TGI,[8],28.8 µM
same,GI50,[9],5.37 µM
same,LC50,[9],95.5 µM
same,TGI,[9],25.7 µM
same,GI50,[10],5.01 µM
same,LC50,[10],72.4 µM
same,TGI,[10],22.4 µM
same,GI50,[11],7.24 µM
same,LC50,[11],> 100 µM
same,TGI,[11],30.2 µM
same,GI50,[12],11.2 µM
same,LC50,[12],> 100 µM
same,TGI,[12],43.7 µM
same,GI50,[13],12.9 µM
same,CC50,[13],77.6 µM
same,TGI,[13],31.6 µM
same,GI50,[14],11.2 µM
same,LC50,[14],72.4 µM
same,TGI,[14],28.2 µM
same,GI50,[15],15.8 µM
same,LC50 (50% lethal concentration),[15],> 100 µM
same,TGI,[15],58.9 µM
same,GI50,[16],5.13 µM
same,LC50,[16],47.9 µM
same,TGI,[16],17.8 µM
same,GI50,[17],11.2 µM
same,LC50,[17],52.5 µM
same,TGI,[17],24.5 µM
CC(C)=CCC/C(C)=C/CC/C(C)=C/Cc1c(O)cc(/C=C/c2ccc(O)cc2)cc1O [SCHWEINFURTHIN J],GI50,[1],1.7 µM
same,CC50,[1],5.89 µM
same,TGI,[1],3.16 µM
same,GI50,[2],3.09 µM
same,CC50,[2],46.8 µM
same,TGI,[2],10.5 µM
same,GI50,[3],1.7 µM
same,CC50,[3],5.75 µM
same,TGI,[3],3.16 µM
same,GI50,[4],2.34 µM
same,CC50,[4],38.9 µM
same,TGI,[4],11.2 µM
same,GI50,[5],3.31 µM
same,LC50,[5],43.7 µM
same,TGI,[5],11.5 µM
same,GI50,[6],2.82 µM
same,LC50,[6],45.7 µM
same,TGI,[6],16.6 µM
same,GI50,[7],3.72 µM
same,LC50,[7],35.5 µM
same,TGI,[7],12.9 µM
same,GI50,[8],2.63 µM
same,LC50,[8],52.5 µM
same,TGI,[8],13.2 µM
same,GI50,[9],0.537 µM
same,LC50,[9],> 100 µM
same,TGI,[9],17 µM
same,GI50,[10],3.72 µM
same,LC50,[10],> 100 µM
same,TGI,[10],22.9 µM
same,GI50,[11],4.07 µM
same,LC50,[11],> 100 µM
same,TGI,[11],25.1 µM
same,GI50,[12],4.27 µM
same,LC50,[12],> 100 µM
same,TGI,[12],29.5 µM
same,GI50,[13],2.29 µM
same,CC50,[13],34.7 µM
same,TGI,[13],8.32 µM
same,GI50,[14],1.82 µM
same,LC50,[14],13.2 µM
same,TGI,[14],4.47 µM
same,GI50,[15],3.24 µM
same,LC50 (50% lethal concentration),[15],64.6 µM
same,TGI,[15],16.6 µM
same,GI50,[16],2.51 µM
same,LC50,[16],18.6 µM
same,TGI,[16],5.62 µM
same,GI50,[17],8.91 µM
same,LC50,[17],46.8 µM
same,TGI,[17],21.4 µM
